In assay [1] the test system is B. anthracis. Type of assay: cell-based, Bacillus anthracis. Conditions: vegetative cells; component alone; 24 h.
The subject of assay [2] is B. cereus. Type of assay: cell-based, Bacillus cereus.
Assay [3] relates to B. subtilis. It counts as cell-based, Bacillus subtilis.
Assay [4] concerns B. pumilus RJ 0055. Type of assay: cell-based, Bacillus pumilus.
In assay [5] the test system is L. mesenteroides B 512F. Type of assay: cell-based, Leuconostoc mesenteroides.
Assay [6] deals with Xanthomonas maltophilia 948. It counts as cell-based.
Assay [7] relates to B. anthracis spores. It counts as cell-based, Bacillus anthracis. The note with it: component alone.
Assay [8] relates to B. cereus spores. It counts as cell-based, Bacillus cereus.
Assay [9] deals with B. subtilis spores. Type of assay: cell-based, Bacillus subtilis.
Assay [10] concerns B. pumilus RJ 0055 spores. It counts as cell-based, Bacillus pumilus.
Assay [11] relates to E. coli B ATCC 23226.
Assay [12] has as its system S typhimurium ATCC 14028.
The subject of assay [13] is Listeria monocytogenes.
Assay [14] concerns Pseudomonas aeruginosa ATCC 1942.
Setting [15] is: vegetative cells, component alone, 24 h.
The mark [16] stands for this setting: component alone, 24 hours at 35° C.

Read-outs that look alike come from different tables or passages of the source.

Consider `OO` [H2O2, hydrogen peroxide], for which the MIC is 0.01 wt % in [1]; 0.025 wt % in assay [2]; 0.025 wt % in assay [3]; 0.025 wt % in [4]; 0.006 wt % in assay [5]; 0.005 wt % in assay [6]. For the same compound, the MIC in assay [7] was determined as 1.0 wt %; in assay [8] it was 5.0 wt %; in assay [9] it was 5.0 wt %; in [10] it was 4.0 wt %; in [11] it was 0.01 wt %; in assay [12], 0.01 wt %. The MIC in [13] was 0.005 wt %; in [14], 150 weight ppm.
Regarding `[Na+].[O-]Cl` [NaHClO3, sodium hypochlorite], the MIC in [1] is reported as 0.05 wt %; in assay [2] (setting [15]), 0.1 wt %; in assay [3] (setting [15]), 0.1 wt %; in assay [4] (setting [15]), 0.1 wt %; in assay [5] (setting [15]), 0.035 wt %; in assay [6] (setting [15]) it was 0.01 wt %. The MIC in assay [7] is on record as 1.0 wt %; in assay [8] ([…], component alone), 4.0 wt %; in [9] ([…], component alone) it was 4.0 wt %; in [10] ([…], component alone) it was 3.5 wt %; in [11] (setting [15]) it was 0.02 wt %; in assay [12] (setting [15]), 0.02 wt %. In addition, the results for the MIC in [13] (setting [15]) and in [14] (setting [16]) were 0.05 wt % and 500 weight ppm, respectively.
Consider `[Na+].[Na+].[O-][O-]` [Sodium Peroxide, sodium peroxide], for which the MIC in assay [14] (setting [16]) is given as 150 weight ppm.

Values taken from US6866870B2 (priority 2002, dated 2005).
